Test results published in patent US7169777B2, “Melanocortin receptor agonists” (Eli Lilly and Company, priority 2001, dated 2007).
Where a name gives a salt, the structure may show the parent alone. Read-outs that look alike come from different tables or passages of the source.

Legend:
rodents = conditions: injected intracerebroventricularly (ICV); NPY, ob/ob, agouti, fasted models; cited from earlier work
MC4 [1] = target: T1, MC4 (Homo sapiens, UniProt P32245); test: Radioligand binding assay (125I-NDP-alpha-MSH competition, SPA, membranes of transfected HEK 293 cells); design: expressed in transfected cells; host or cells: HEK 293 (stably transfected), membrane preparation
Experimental: HEK 293 cells transfected with human or rat melanocortinin receptors are grown either as adherent monolayers or suspension culture. Monolayer cells are grown in roller bottle cultures at 37° C. and 5% CO2/air atmosphere in a 3:1 mixture of Dulbecco's modified Eagle medium (DMEM) and Ham's F12 containing 25 mM […], 100 units/ml penicillin G, 100 microgram/ml streptomyocin, 250 nanogram/ml amphoterin B, 300 microgram/ml genticin and supplemented with 5% fetal bovine serum. […] Cells are harvested by centrifugation, washed in PBS, and pellets are stored frozen at −80° C. until membrane preparations.
The cell pellets are resuspended in 10 volumes of membrane preparation buffer (i.e., 1 g pellet to 10 ml buffer) having the following composition: 50 mM Tris pH 7.5 @ 4° C., 250 mM sucrose, 1 mM MgCl2, Complete® EDTA-free protease inhibitor tablet (Boehringer Mannheim), and 24 micrograms/ml DNase I (Sigma, St. Louis, Mo.). The cells are homogenized with a motor-driven dounce using 20 strokes, and the homogenate is centrifuged at 38,000×g at 4° C. for 40 minutes. The pellets are resuspended in membrane preparation buffer at a concentration of 2.5–7.5 mg/ml and 1 milliliter aliquots of membrane homogenates are quickly frozen in liquid nitrogen and then stored at −80° C.
Solutions of a compound of formula I (300 picomolar to 30 micromolar) or unlabelled NDP-alpha-MSH (1 picomolar to 100 nanomolar) are added to 150 microliters of membrane binding buffer to yield final concentrations (listed in parantheses). The membrane binding buffer has the following composition: 25 mM HEPES pH 7.5; 10 mM CaCl2; 0.3% BSA). […] Additionally, fifty microliters of SPA beads (5 mg/ml) are added and the resulting mixture is agitated briefly and incubated for 10 hours at room temperature. The radioactivity is quantified in a Wallac Trilux Microplate Scintillation counter. IC50 values obtained in competition assays are converted to affinity constants (Ki values) using the Cheng-Prusoff equation: Ki=IC50/(1+D/Kd).

MC4 [2] = target: T1, MC4; test: Melanocortin receptor whole cell cAMP accumulation assay (MC4R); type: cell-based; design: expressed in transfected cells; host or cells: HEK 293 (stably transfected); conditions: for Relative Eff.: relative efficacy compared to NDP-alpha-MSH, defined as a 100% agonist
Experimental: Melanocortin Receptor Whole Cell cAMP Accumulation Assay
These are serially diluted in 100% DMSO. The compound plate is further diluted 1:200 in compound dilution buffer (HBSS-092, 1 mM Ascorbic Acid, 1 mM IBMX, 0.6% DMSO, 0.1% BSA). […] Transfer 20 μl from this plate into four PET 96-well plates (all assays are performed in duplicate for each receptor).
[…] cells stably transfected with the MC3R and MC4R were grown in DMEM containing 10% FBS and 1% Antibiotic/Antimycotic Solution. On the day of the assay the cells were dislodged with enzyme free cell dissociation solution and resuspended in cell buffer (HBSS-092, 0.1% BSA, 10 mM HEPES) at 1×e6 cells/ml. Add 40 μl of cells/well to the PET 96-well plates containing 20 ul diluted compound and control. Incubate @ 37° C. in a waterbath for 20 minutes. Stop the assay by adding 50 μl Quench Buffer (50 mM Na Acetate, 0.25% Triton X-100).
Radioligand binding assays were run in SPA buffer (50 mM Sodium Acetate, 0.1% BSA). The beads, antibody and radioligand were diluted in SPA buffer to provide sufficient volume for each 96-well plate. […] The plates were counted in a Wallac MicroBeta counter after a 12-hour incubation.
The data was converted to pmoles cAMP using a standard curve assayed under the same conditions. The data was analyzed using Activity Base software to generate agonist potencies (EC50) and percent relative efficacy data to NDP-aMSH.

[3] = 125I-NDP-alpha-MSH competition, Ki from IC50 by Cheng-Prusoff, read-out: MC4 Binding Ki
[4] = MC4 agonist potency, read-out: MC4 EC50

T1 sequence (P32245 whole entry): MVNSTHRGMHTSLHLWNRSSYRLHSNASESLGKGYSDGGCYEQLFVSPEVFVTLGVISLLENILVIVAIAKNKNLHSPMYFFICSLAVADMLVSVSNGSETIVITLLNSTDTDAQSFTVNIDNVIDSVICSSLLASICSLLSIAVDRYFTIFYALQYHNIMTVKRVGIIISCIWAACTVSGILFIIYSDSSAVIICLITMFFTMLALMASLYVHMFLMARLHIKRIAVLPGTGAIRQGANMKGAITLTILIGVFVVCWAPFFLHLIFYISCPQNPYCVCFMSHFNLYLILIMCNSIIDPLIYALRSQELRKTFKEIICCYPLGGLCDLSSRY

Row | Molecule | food intake (rodents) | Ki (MC4 [1]; [3]) [nM] | EC50 (MC4 [2]; [4]) [nM] | Relative Eff. (MC4 [2]) | Ki (MC4 [1]) [nM] | EC50 (MC4 [2]) [nM]
1 | SHU-9119 | reverses this effect and can induce hyperphagia | – | – | – | – | –
2 | CCN(CC)CC(c1ccccc1F)N1CCN(C(=O)[C@@H](Cc2ccc(Cl)cc2)NC(=O)[C@H]2Cc3ccccc3C(C)(C)N2)CC1 (some centres unmarked) [Compd 814] | – | 18.1 | 127 | 108.6 | – | –
3 | O=C(CC1NCc2ccccc21)N[C@H](Cc1ccc(Cl)cc1)C(=O)N1CCN(C(CC2CCCCC2)CN2CCOCC2)CC1 (mixture of isomers) [Example N38, N-{1-(4-chloro-benzyl)-2-[4-(1-cyclohexylmethyl-2-morpholine-4-yl-ethyl)-piperazin-1-yl]-2-oxo-ethyl}-2-(2,3-dihydro-1H-isoindol-1-yl)-acetamide tri(trifluoroacetate) salt] | – | – | – | 115.6 | 10 | 69.3
4 | CC(C)CN(CC(C1CCCCC1)N1CCN(C(=O)C(Cc2ccc(Cl)cc2)NC(=O)CC2NCc3ccccc32)CC1)S(C)(=O)=O (single isomer, unassigned) [Example N71, N-(1-(4-Chloro-benzyl)-2-{4-[1-cyclohexyl-2-(isobutyl-methanesulfonyl-amino)-ethyl]-piperazin-1-yl}-2-oxo-ethyl)-2-(2,3-dihydro-1H-isoindol-1-yl)-acetamide dihydrochloride salt] | – | 11.3 | 8.4 | 102.6 | – | –
5 | CC(C)CC(CC(C)C)N1CCN(C(=O)[C@@H](Cc2ccc(Cl)cc2)NC(=O)CC2NCc3ccccc32)CC1.Cl.Cl (some centres unmarked) [Compd 3251] | – | 5.8 | 76.7 | 67.0 | – | –
6 | melanotanin-II [MT-II] | reduces food intake | – | – | – | – | –
